The target in test [1] is PIK3CA (human) (UniProt P42336). Kind of test: Inhibition of PIK3CA Kinase Activity.
The target in test [2] is PIK3CD (Human) (UniProt O00329). Kind of test: Inhibition of PIK3CD Kinase Activity.
Test [3] deals with PIK3CG (human) (UniProt P48736). Kind of test: Inhibition of PIK3CG Kinase Activity.
Test [4] addresses PIK3CB (Human) (UniProt P42338). Kind of test: Inhibition of PIK3CB Kinase Activity.

The term IC50 denotes the concentration that gives 50% inhibition. A lower IC50 goes with greater potency in that assay.

Each structure is given as a SMILES string. Where only a bound is given, the exact number is not on record here.

Sequence of PIK3CG (human) (P48736 whole entry, looked up): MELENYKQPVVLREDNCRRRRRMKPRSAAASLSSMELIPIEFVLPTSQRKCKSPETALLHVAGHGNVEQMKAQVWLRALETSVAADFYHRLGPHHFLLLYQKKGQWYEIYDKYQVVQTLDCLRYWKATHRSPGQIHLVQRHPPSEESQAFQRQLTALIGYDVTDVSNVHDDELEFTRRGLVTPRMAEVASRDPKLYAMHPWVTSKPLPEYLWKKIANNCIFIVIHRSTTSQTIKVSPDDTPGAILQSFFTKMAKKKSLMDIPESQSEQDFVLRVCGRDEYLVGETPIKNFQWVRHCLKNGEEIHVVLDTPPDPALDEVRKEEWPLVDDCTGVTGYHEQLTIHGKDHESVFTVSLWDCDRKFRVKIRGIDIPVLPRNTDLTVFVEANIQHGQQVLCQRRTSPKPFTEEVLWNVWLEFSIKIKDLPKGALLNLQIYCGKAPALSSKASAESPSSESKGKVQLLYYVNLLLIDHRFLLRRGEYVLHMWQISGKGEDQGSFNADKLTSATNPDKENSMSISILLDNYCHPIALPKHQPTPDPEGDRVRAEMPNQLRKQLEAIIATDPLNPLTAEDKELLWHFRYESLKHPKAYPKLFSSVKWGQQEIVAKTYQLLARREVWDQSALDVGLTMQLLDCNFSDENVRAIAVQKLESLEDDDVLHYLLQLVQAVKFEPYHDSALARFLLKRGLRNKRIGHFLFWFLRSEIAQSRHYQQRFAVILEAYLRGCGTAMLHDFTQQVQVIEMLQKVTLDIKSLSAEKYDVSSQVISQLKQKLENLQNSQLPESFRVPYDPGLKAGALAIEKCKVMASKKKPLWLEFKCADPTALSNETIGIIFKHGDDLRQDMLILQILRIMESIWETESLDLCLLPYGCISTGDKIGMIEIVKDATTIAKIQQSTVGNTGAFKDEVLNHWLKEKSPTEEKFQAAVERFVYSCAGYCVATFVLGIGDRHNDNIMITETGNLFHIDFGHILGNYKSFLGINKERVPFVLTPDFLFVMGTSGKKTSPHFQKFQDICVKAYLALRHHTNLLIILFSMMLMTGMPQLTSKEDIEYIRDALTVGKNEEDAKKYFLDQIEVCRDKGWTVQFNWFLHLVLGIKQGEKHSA
Sequence of PIK3CD (Human) (O00329 whole entry, looked up): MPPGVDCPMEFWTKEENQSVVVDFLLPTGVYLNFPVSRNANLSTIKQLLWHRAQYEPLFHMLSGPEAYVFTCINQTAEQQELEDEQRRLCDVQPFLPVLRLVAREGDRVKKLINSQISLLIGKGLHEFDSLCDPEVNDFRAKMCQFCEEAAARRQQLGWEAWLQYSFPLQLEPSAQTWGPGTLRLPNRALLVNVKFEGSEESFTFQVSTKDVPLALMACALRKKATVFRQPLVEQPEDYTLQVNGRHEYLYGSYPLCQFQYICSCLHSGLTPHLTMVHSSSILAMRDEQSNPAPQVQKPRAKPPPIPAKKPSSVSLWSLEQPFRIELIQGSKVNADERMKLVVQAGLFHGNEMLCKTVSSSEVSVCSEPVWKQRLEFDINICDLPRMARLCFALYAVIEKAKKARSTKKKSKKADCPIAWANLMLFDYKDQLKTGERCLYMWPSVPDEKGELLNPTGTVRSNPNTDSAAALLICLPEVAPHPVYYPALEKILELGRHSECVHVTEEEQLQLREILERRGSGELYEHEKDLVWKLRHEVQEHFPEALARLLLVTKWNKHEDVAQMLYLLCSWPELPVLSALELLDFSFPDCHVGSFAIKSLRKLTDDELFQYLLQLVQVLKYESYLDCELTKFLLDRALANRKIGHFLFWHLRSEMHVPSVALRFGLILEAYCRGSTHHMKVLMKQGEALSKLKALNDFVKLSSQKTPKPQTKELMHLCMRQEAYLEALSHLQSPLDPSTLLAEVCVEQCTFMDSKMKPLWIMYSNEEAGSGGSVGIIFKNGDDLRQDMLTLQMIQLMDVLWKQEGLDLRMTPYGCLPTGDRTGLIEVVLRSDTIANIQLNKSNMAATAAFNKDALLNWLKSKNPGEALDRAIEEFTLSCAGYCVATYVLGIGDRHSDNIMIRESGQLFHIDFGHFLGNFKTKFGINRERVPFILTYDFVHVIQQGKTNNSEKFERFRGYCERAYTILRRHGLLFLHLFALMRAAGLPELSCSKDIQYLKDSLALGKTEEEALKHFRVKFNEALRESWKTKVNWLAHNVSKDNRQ
Sequence of PIK3CB (Human) (P42338 whole entry, looked up): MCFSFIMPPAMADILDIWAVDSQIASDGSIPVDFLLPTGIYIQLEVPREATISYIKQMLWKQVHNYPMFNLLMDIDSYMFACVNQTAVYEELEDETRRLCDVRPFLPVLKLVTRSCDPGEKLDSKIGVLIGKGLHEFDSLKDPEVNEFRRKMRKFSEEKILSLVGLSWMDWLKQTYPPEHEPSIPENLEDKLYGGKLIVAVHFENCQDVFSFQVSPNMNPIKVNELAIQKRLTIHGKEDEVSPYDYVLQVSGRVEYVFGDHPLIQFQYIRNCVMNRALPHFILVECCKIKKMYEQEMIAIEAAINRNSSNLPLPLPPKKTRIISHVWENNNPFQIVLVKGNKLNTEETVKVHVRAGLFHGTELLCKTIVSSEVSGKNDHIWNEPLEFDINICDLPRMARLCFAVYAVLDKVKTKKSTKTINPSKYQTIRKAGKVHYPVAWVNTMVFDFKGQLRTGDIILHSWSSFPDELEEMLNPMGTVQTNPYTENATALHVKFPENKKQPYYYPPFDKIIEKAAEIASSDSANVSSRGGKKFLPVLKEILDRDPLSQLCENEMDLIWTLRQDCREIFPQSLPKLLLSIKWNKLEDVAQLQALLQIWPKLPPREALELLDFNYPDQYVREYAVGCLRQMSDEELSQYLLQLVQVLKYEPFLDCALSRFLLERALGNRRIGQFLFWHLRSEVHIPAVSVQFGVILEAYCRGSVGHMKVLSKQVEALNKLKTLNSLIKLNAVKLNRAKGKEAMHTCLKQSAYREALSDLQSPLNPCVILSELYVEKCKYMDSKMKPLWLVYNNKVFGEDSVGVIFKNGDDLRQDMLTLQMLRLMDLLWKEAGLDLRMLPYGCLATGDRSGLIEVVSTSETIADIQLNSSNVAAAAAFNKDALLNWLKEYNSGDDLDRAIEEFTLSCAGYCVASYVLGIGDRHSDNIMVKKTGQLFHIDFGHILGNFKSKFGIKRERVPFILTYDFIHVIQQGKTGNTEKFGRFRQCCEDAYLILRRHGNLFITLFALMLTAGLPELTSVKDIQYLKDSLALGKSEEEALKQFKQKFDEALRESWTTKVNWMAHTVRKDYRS
Sequence of PIK3CA (human) (P42336 whole entry, looked up): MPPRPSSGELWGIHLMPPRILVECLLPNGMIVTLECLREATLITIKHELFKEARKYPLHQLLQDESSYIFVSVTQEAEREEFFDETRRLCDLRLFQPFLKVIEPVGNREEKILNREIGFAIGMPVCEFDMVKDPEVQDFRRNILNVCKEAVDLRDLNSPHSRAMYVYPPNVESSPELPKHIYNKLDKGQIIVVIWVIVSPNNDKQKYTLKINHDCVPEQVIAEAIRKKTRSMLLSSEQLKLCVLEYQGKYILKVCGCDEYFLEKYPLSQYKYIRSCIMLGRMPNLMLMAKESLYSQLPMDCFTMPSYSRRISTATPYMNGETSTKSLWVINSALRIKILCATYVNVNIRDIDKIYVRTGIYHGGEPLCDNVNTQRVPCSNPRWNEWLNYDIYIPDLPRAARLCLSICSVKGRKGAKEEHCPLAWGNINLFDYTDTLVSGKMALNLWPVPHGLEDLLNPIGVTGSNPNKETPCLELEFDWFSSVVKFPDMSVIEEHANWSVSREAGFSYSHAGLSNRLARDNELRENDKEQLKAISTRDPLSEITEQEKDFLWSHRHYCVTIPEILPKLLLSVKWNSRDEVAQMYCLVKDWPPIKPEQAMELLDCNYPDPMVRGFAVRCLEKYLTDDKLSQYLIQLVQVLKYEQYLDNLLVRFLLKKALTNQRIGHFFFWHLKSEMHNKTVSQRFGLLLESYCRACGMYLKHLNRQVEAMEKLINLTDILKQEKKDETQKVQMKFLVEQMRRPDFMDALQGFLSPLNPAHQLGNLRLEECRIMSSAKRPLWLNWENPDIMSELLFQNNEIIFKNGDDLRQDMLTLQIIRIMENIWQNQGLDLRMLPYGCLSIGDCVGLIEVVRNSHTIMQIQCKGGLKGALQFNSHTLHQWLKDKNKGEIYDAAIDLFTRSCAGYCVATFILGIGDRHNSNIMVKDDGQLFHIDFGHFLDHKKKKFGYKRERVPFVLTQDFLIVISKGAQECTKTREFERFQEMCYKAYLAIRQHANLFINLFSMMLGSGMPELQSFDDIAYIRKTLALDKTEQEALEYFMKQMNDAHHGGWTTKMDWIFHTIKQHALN

With `CC(C)(C)OC(=O)CCNC(=O)Nc1nc2ccc(-c3cccc(S(C)(=O)=O)c3)cc2s1`, the half-maximal inhibitory concentration (IC50) in test [1] is greater than 20000 nM; in test [2], greater than 20000 nM; in test [3], less than 1000 nM; in test [4], less than 1000 nM.

Consider `CC(=O)Nc1nc2ccc(-c3cccc(S(=O)(=O)NCCO)c3)cc2s1`, for which the IC50 in test [1], in test [2], in test [3] and in test [4] was less than 1000 nM in each case.

As for `CC(=O)Nc1nc2ccc(-c3cccc(S(=O)(=O)N4CCCC(N)C4)c3)cc2s1` (configuration not stated), the IC50 in test [1], in test [2], in test [3] and in test [4] was less than 1000 nM each time.

As for `COc1cc(-c2ccc3nc(NC(C)=O)cn3n2)ccc1O`, the concentration for half-maximal inhibition (IC50) in test [1], in test [2], in test [3] and in test [4] was less than 1000 nM in each case.

Regarding `CS(=O)(=O)c1cccc(-c2ccc3nc(NC(=O)NCCC(=O)N4CCCC4)sc3c2)c1`, the IC50 in test [2], in test [3] and in test [4] was less than 1000 nM throughout.

For the compound `CC(=O)Nc1nc2ccc(-c3cncc(S(=O)(=O)N(C)C)c3)cc2s1`, the IC50 in test [1], in test [2], in test [3] and in test [4] was less than 1000 nM throughout.

Take `CC(=O)Nc1nc2ccc(-c3cncc(S(N)(=O)=O)c3)cc2s1`: the IC50 in test [1], in test [2], in test [3] and in test [4] was less than 1000 nM throughout.

As to `COc1cc(-c2ccc3nc(NC(=O)NCC(=O)N4CCOCC4)sc3c2)ccc1O`, the IC50 in test [1], in test [2], in test [3] and in test [4] was less than 1000 nM in each case.

In the case of `CC(=O)Nc1nc2ccc(-c3cccc(S(=O)(=O)N(C)CCO)c3)cc2s1`, the half-maximal inhibitory concentration (IC50) in test [1], in test [2], in test [3] and in test [4] was less than 1000 nM throughout.

In the case of `COc1cc(-c2ccc3nc(NC(C)=O)sc3c2)ccc1O`, the concentration for half-maximal inhibition (IC50) in test [1], in test [2], in test [3] and in test [4] was less than 1000 nM each time.

As to `CC(=O)Nc1nc2ccc(-c3cccc(S(C)(=O)=O)n3)cc2s1`, the half-inhibitory concentration (IC50) in test [1] is less than 1000 nM; in test [2] it was less than 1000 nM; in test [4], greater than 20000 nM.

For the origin of these results see the Kinase Knowledgebase extract (Sharma et al. 2016).
